Data set [1] in a line: Antiproliferative activity against human HREC cells assessed as cell growth inhibition incubated for 44 hrs by AlamarBlue reagent based fluorescence assay. The class given is functional.
The nature of data set [2]: Cytotoxicity against human ARPE-19 cells assessed as cell growth inhibition incubated for 44 hrs by AlamarBlue reagent based fluorescence assay. The data set is classed as toxicity. For orientation: The colour change of resazurin is a common sign of viable cells or microbes.
In a further data set the test system is HREC. The data set can be described thus: Antiangiogenic activity against human HREC cells assessed as inhibition of invitro tubule formation by measuring tubule length at 0.05 to 50 uM and measured after 8 hrs by Matrigel based bright-field microscopy. The data set is classed as functional, cell-based. The following applies: dose 0.05-50 µM.

Structures are written as SMILES.

The results in this text go back to ChEMBL document CHEMBL5252627, “Antiangiogenic Pterocarpan and Flavonoid Constituents of Erythrina lysistemon” (J Nat Prod, 2023).

In the case of `COc1ccc(CC2COc3cc(OC)c(OC)c(OC)c3C2=O)cc1OC(=O)[C@H](Cc1ccccc1)NC(=O)OC(C)(C)C` (some centres not stated), the concentration for 50% growth inhibition (GI50) (commonly the concentration giving 50% growth inhibition) in data set [1] turned out to be 0.018 µM. Moreover, the GI50 at 44 h in data set [2] is over 100 µM.
With `CC(C)=CCc1c(O)ccc2c1OC[C@H]1c3ccc4c(c3O[C@@H]21)CC(O)C(C)(C)O4` (some centres not stated), the Activity result in the data set on HREC was “Dose-Dependent Effect”. Moreover, in data set [1], the GI50 is 4.67 µM. In addition, the concentration for 50% growth inhibition (GI50) at 44 h in data set [2] is over 100 µM.
For the molecule `CC1(C)C=Cc2c(ccc3c2O[C@H]2c4ccc5c(c4OC[C@@H]32)C=CC(C)(C)O5)O1`, the GI50 in data set [1] was over 100 µM. Also, the concentration for 50% growth inhibition (GI50) at 44 h in data set [2] is over 100 µM.
Consider `CC(C)=CCc1cc2c(c(CC=C(C)C)c1O)OC[C@@H](c1ccc(O)cc1O)C2=O`, for which the Activity result with HREC was “Dose-Dependent Effect”. The 50% growth inhibitory concentration (GI50) in data set [1] came out at 5.85 µM. Also, in data set [2], the concentration for 50% growth inhibition (GI50) at 44 h is over 100 µM.
For `CC(C)=CCc1cc2c(c(CC=C(C)C)c1O)OC[C@@H](c1ccc(O)cc1O)C2`, in that order: “Dose-Dependent Effect”, 3.65 µM and over 100 µM.
As for `CC(C)=CCc1c(O)ccc2c1O[C@H]1c3ccc(O)c(CC=C(C)C)c3OC[C@@H]21` [ERYBRAEDIN A], in the data set with HREC, the Activity entry was “Dose-Dependent Effect”. Moreover, the 50% growth inhibitory concentration (GI50) in data set [1] came to 4.21 µM. Besides, in data set [2], the GI50 at 44 h was over 100 µM.
Take `CC(C)=CCc1cc2c(cc1O)OC[C@H]1c3ccc(O)c(CC=C(C)C)c3O[C@@H]21` [ERYBRAEDIN C]: in the data set with HREC, the Activity entry is “Dose-Dependent Effect”. Moreover, in data set [1], the 50% growth inhibitory concentration (GI50) is 2.57 µM. For the same molecule, the GI50 at 44 h in data set [2] was over 100 µM.
For `CC1(C)C=Cc2c(ccc3c2O[C@H]2c4ccc(O)cc4OC[C@@H]32)O1` [PHASEOLIN], in that order: “Dose-Dependent Effect”, 4.65 µM and over 100 µM.
With `CC(C)=CCc1c(O)ccc2c1O[C@H]1c3ccc(O)cc3OC[C@@H]21` [PHASEOLLIDIN], in data set [1], the GI50 is over 100 µM. The concentration for 50% growth inhibition (GI50) at 44 h in data set [2] is over 100 µM.
Turning to `COc1ccc2c(c1CC=C(C)C)O[C@H]1c3ccc(O)cc3OC[C@@H]21` [SANDWICENSIN], the Activity entry in the data set with HREC is “Dose-Dependent Effect”. Moreover, in data set [1], the concentration for 50% growth inhibition (GI50) came to 5.91 µM. In addition, the GI50 at 44 h in data set [2] is over 100 µM.
